Here are results for eight compounds from article PMC11053681, “Gold(I) and Silver(I) Complexes Containing Hybrid Sulfonamide/Thiourea Ligands as Potential Leishmanicidal Agents” (Pharmaceutics, 2024).

Where “and” joins values, the source holds several entries; their conditions need not be identical. Equal values may be shown once. Entries after “also recorded” stand apart in the source; their conditions may differ. Read-outs that look alike come from different tables or passages of the source.

Series [1] can be described thus: Cytotoxicity assay on Vero cells (resazurin). It counts as cell-based, African green monkey. Particulars: African green monkey, Vero cells (ATCC CRL-1587), 24 h treatment. How it is done: For the experiment, Vero cells (ATCC CRL-1587) were used in Roswell Parl Memorial Institute (RPMI) medium with 10% fetal bovine serum (FBS) (RPMI 10%) and 20 μg/mL of Gentamicin. They were cultivated in culture bottles of […] and kept in an oven at 37 °C with 5% carbon dioxide (CO2). When picked or used on the day of the experiment, the cells were detached from the wall of the bottles with saline and 1X trypsin/EDTA. To find out how many cells there were in the bottle, it was diluted in Turkey liquid and then we proceeded with the counting in the Neubauer Chamber to calculate the desired concentrations. The Vero cells were plated at […] cells per well, in 96-well plates, and kept in an incubator with 5% CO2 at 37 °C for 24 h. Then, the compounds were added in triplicate, starting at a concentration of 500 µM, with serial dilution being performed up to a concentration of 3.9 µM [54]. The treatment was carried out for 24 h, and, after adding 5 µL of resazurin, the fluorescence was read using a spectrofluorometer (EnSpire Perkin-Elmer, Waltham, MA, USA).

In series [2] the test system is Leishmania braziliensis. Nature of the series: Leishmanicidal activity against promastigotes (resazurin). In kind it is cell-based. Particulars: for IC50: Leishmania braziliensis, promastigote form, 24 h treatment, resazurin, read-out: IC50 L. braziliensis; for SI L. braziliensis: selectivity index = CC50 (Vero) / IC50 (L. braziliensis promastigotes). How it is done:
(§1) The Leishmania infantum and Leishmania braziliensis strains were maintained in Schneider medium supplemented with 20% of SFB (Schneider 20%), cultivated in […] bottles and stored at 28 °C in a BOD oven. For the assays, parasites at the 5th day stationary growth phase were used.
(§2) The promastigotes metacyclic form of Leishmania infantum and Leishmania braziliensis were first filtered with an insulin syringe to break up rosettes and, then, were isolated from the culture in the stationary phase by centrifugation of 400× g for 4 min at a temperature of 4 °C [53]. The supernatant was subjected to a new centrifugation, heavier, of 2000× g for 30 min, also at 4 °C. The supernatant was discarded and the cell pallet formed from this centrifugation was resuspended in 10 mL of 10% Schneider medium. The process ensured the removal of cellular debris and dead parasites, as well as possible crystals from the culture medium, so that the quality of the experiment was guaranteed. Then, the promastigotes were diluted to 1:10 in paraformaldehyde (PFA) for counting in a Neubauer Chamber, with the concentrations adjusted for each experiment.
(§3) An amount of 1 × 10^7 parasites per well was used. The parasites were plated in 96-well plates. Then, the compounds were added in triplicate, starting at a concentration of 500 µM, with serial dilutions being performed up to a concentration of 3.9 µM [53]. The treatment was carried out for 24 h and, after adding 5 µL of resazurin, the fluorescence was read using a Enspire model spectrofluorometer (Perkin-Elmer, Waltham, MA, USA).

Series [3] relates to Leishmania infantum. Described as above. The conditions noted are these: for IC50: Leishmania infantum, promastigote form, 24 h treatment, resazurin, read-out: IC50 L. infantum; for SI L. infantum: selectivity index = CC50 (Vero) / IC50 (L. infantum promastigotes). It counts as cell-based. How it is done: as §1, §2, §3
The subject of series [4] is RAW macrophages infected with Leishmania infantum. Put plainly: Infectivity test / infection rate in RAW macrophages. In kind it is cell-based. The conditions noted are these: three concentrations (below IC50, IC50, above IC50), 24 h treatment. How it is done:
For the infection of RAW macrophages adhered to the plates, we used parasites in the promastigote form of Leishmania infantum, in the stationary phase, in a ratio of 10:1 (promastigotes/macrophages).
Macrophages were plated in the amount of 5 × 10^4 cells per well, in 96-well plates, which were kept in a CO2 oven at 37 °C for 24 h. The parasites were plated at a concentration of 10:1. The plates were kept in a CO2 oven for 12 h until the parasites infected the cells. […] Plates were fixed with paraformol for further evaluation. Plaques were evaluated by counting parasites within 200 cells under the EVOS Cell Imaging System (Thermo Scientific, Waltham, MA, USA) microscope by staining with propidium iodide.
In view of the data obtained, the six most promising compounds (HL1^Ch, HL2^Ph, Ag3, Ag4, Ag6 and Au2) were selected for carrying out the infection rate test against the L. infantum parasite. […] This test was performed at four stages. The first step determined the percentage of the amount in 200 infected macrophages per parasite, the second determined the percentage of parasites that infects 100 cells/macrophages, the third determined the average percentage of parasites that infects 200 cells/macrophages and, finally, the fourth step indicated the infection rate, that is, the result of the amount of Leishmania per macrophage (obtained from the third step) multiplied by the percentage of infected macrophages. Figure 5 presents the graphs of the infection rates, while the other graphs can be found in Figure S7.4.

The target of series [5] is LbOYE (Leishmania braziliensis, UniProt A4H6Z3). Nature of the series: Suppression of intrinsic tryptophan fluorescence of LbOYE. It counts as binding. Particulars: for Affinity of LbOYE for the compound (fluorescence quenching), in words: Hill fit for Kd not possible for these ligands. The source says:
The recombinant LbOYE protein was produced using the methodology previously described. Briefly, the protein was expressed in strains of bacterial Escherichia coli BL21(DE3) through induction by IPTG using the pET28a:LbOYE vector. The enzyme was purified through a chromatography step of capture by nickel affinity, as the pET28a vector allows the expression of a polyhistidine fusion peptide, located at the N-terminal end of the protein. After affinity purification, the polyhistidine tail was excised by “overnight” incubation with thrombin, and the second purification step was performed using size exclusion chromatography. Purification was evaluated by SDS-PAGE and protein concentration was estimated by spectrophotometry.
The emission spectra of the intrinsic fluorescence of the tryptophan were recorded using a Shimadzu F-4500 spectrofluorometer in the range of 310–420 nm, with opening of slits of excitation and emission at 5.0 nm and λex = 295 nm. Interaction analyzes between LbOYE and ligands were performed at λmax = 333 nm.
(§4) The compounds were solubilized in DMSO and then we made successive dilutions in a Tris-HCl 25 mmol L^−1 buffer, pH 8.0, containing 100 mmol L^−1 of NaCl. For all experiments, the final concentration of DMSO was kept constant and equal to 2.5%. Solutions with increasing concentrations of ligand and constant concentration of LbOYE (1 µmol L^−1) were prepared, which were kept at 25 °C for a period of 1h before acquisition of fluorescence emission spectra.
The results were obtained from the fluorescence emission spectra of the intrinsic tryptophan probe in the presence of the compounds HL1^Ch, HL3^FPh, HL5^NO2Ph, [Au(HL1^Ch)2]Cl and [Ag(HL3^FPh)2]NO3. The bonding parameters were determined by the Hill plot, obtaining the dissociation constant (Kd) through the non-linear adjustment of the saturation curve to the experimental data. The double-log plot was used to determine the bonding constant and the number of bonding sites (n). It also allows the calculation of the bonding constant (Kb) and Kd from 1/Kb.
Equation (1)—Hill’s equation:(1) F0−F/F0=[L]/L+Kd
Equation (2)—Double-log:(2) logF0−F/F0=nlogKb−nlog1/L−(F0−F)[P0]/F
Equation (3)—Equation of Stern–Volmer:(3) F0/F=1+KSV[L]
The study of fluorescence quenching can be affected when the ligand has absorption bands that coincide with excitation and emission wavelengths of fluorescence. This interference is called the internal filter effect, which can be minimized using the procedure described by Equation (4). Fobs and Fcor are the fluorescence intensities at 333 nm measured and corrected, respectively; l represents the optical step where the absorption and emission of light occurs and C0 is the concentration of the ligand.
For the correction of the internal filter effect, were used the molar absorptivity coefficient values in the excitation (295 nm) and emission (333 nm) lengths, [λ/ε (L mol^−1 cm^−1)]; HL1^Ch (εex = 373 and εem = 117), HL3^FPh (εex = 1191 and εem = 57), HL5^NO2Ph (εex = 6162 and εem = 9124), Au1 (εex = 7045 and εem = 4008) and Ag3 (εex = 9431 and εem = 3281).

A short description of series [6]: Solubility in buffer for the fluorescence experiments. In kind it is physicochemical. The conditions noted are these: Tris-HCl buffer. How it is done:
as §4
After the synthesis and structural characterization of the compounds, studies of interaction of the compounds and the recombinant LbOYE were carried out by fluorescence measurements.

Series [7] deals with L. infantum. Set-up: method as in PMID 21833767, PMID 22926569. The conditions noted are these: conditions and methods vary; read-out: Antileishmanial activity of other compounds; cited from earlier work.

Chain of LbOYE (A4H6Z3 entry or part of it): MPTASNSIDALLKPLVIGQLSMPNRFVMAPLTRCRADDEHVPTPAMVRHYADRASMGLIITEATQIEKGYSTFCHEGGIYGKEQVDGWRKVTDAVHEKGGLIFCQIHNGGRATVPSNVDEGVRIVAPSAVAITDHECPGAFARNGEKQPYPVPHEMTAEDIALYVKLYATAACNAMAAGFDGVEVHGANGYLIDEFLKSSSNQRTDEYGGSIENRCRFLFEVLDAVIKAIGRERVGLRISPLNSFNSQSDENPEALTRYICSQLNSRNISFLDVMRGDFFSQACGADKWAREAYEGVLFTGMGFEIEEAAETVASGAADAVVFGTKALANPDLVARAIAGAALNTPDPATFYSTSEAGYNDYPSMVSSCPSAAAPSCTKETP

`Cc1ccc(S(=O)(=O)NNC(=S)NC2CCCCC2)cc1` [HL1^Ch] returned a CC50 at 24 h in series [1] of 293 µM. In series [2], the IC50 was 128.9 ± 0.051 µM and the “SI L. braziliensis” value came to 2.27. In series [3], the IC50 worked out at 11 ± 0.306 µM; the “SI L. infantum” value is 26.6 and 26.64. Moreover, the “Infection rate of L. infantum in macrophages, in words” value in series [4] is given as “considerably lowered the infection rate of the parasite even at a concentration below its IC50”. Moreover, in series [5], the “Affinity of LbOYE for the compound (fluorescence quenching), in words” value was “lower affinity”. Also, the “Solubility in buffer at the concentrations for the fluorescence experiments, in words” value (“Solubility in buffer” for short) in series [6] is reported as “passed this stage”.

Regarding `CCP(CC)CC.[Au+].[Cl-]` [[AuCl(PEt3)]], the IC50 in series [7] was 16.6 ± 1.03 µM.

In the case of `Cc1ccc(S(=O)(=O)NNC(=S)Nc2ccc([N+](=O)[O-])cc2)cc1` [HL5^NO2Ph, N-(4-nitrophenyl)-2-tosylhydrazinocarbothioamide], in series [1], the CC50 at 24 h worked out at 26.6 µM. In series [2], the IC50 was found to be 19.02 ± 0.012 µM and the “SI L. braziliensis” value is on record as 1.40. In addition, in series [3], the IC50 is 286.9 ± 0.075 µM and the “SI L. infantum” value is 0.09. In addition, the Kd in series [5] (Hill plot (n = 1), Equation (1), 25 °C, Tris-HCl pH 8.0, 2.5% DMSO, read-out: Kd * (Hill plot)) worked out at 35 ± 2 µM. In addition, the “Ksv *** (Stern–Volmer constant)” value in series [5] (Stern–Volmer, Equation (3), 25 °C) is given as 6.5 ± 0.4 × 10^4. The Kd in series [5] (double log, Equation (2), Kd = 1/Kb, 25 °C, read-out: Kd ** (double log) (converted)) was 19 ± 1 µM. Further, the “n ** (number of bonding sites)” value in series [5] (double log, Equation (2), 25 °C) was 1.5 ± 0.1. In addition, in series [6], the “Solubility in buffer” value is reported as “passed this stage”.

`Cc1ccc(S(=O)(=O)NNC(=S)Nc2ccccc2)cc1` [HL2^Ph]: the CC50 at 24 h in series [1] came to 268 µM. Moreover, in series [2], the IC50 is 273.5 ± 0.018 µM and the “SI L. braziliensis” value was 0.98. Also, in series [3], the IC50 amounted to 48.39 ± 0.189 µM; the “SI L. infantum” value was 5.5 and 5.54. Besides, the “Infection rate of L. infantum in macrophages, in words” value in series [4] is “the infection index was not relevant for a concentration below its IC50”.

As for `CCCCCCCCCCCCCCCCOP(=O)([O-])OCC[N+](C)(C)C` [miltefosine], the IC50 in series [7] was 14.4 ± 1.1 µM.

Take `Cc1ccc(S(=O)(=O)NNC(=S)Nc2ccc(F)cc2)cc1` [HL3^FPh, N-(4-fluorophenyl)-2-tosylhydrazinocarbothioamide]: in series [1], it took 292 µM to reach half-maximal cytotoxicity (CC50 at 24 h). In series [2], the IC50 stood at 204.5 ± 0.018 µM and the “SI L. braziliensis” value was 1.43. Moreover, in series [3], the IC50 worked out at 201.2 ± 0.052 µM and the “SI L. infantum” value amounted to 1.450. Further, the “Affinity of LbOYE for the compound (fluorescence quenching), in words” value in series [5] is recorded as “lower affinity; also recorded: low affinity”. Besides, the “Solubility in buffer” value in series [6] is listed as “passed this stage”.

With `CC(=O)OC[C@H]1O[C@@H]([S-])[C@H](OC(C)=O)[C@@H](OC(C)=O)[C@@H]1OC(C)=O.CCP(CC)CC.[Au+]` [auranofin], the IC50 in series [7] was 9.68 ± 1.02 µM.

Turning to `COc1cc(NC(C)CCCN)c2ncccc2c1` (centres unmarked) [primaquine], the IC50 in series [7] was 26.5 ± 1.2 µM.
